Test results reported in patent publication US10240154B2, “RNA products and uses thereof” (IFOM Fondazione Istituto FIRC di Oncologia Molecolare, priority 2012, dated 2019).

Tests used:
[1] = system: DDRNAs with telomeric sequence; test: LNA transfection, BrdU incorporation after telomere uncapping in T19 fibrosarcoma cells; type: cell-based, human; conditions: LNA 200 nM, 3 days following LNA transfection
Method: (§1) (for the experiments in FIGS. 35-36). T19 fibrosarcoma cells (van Steensel, Cell 1998) were grown in DMEM supplemented with 10% fetal bovine serum, 1% glutamine and doxycycline (100 ng/ml). For induction, cells were grown without doxycycline for at least 7-8 days. CRE-ER TRF2^flox/flow MEFs (Lazzerini Denchi and de Lange, Nature 2007) were grown in DMEM supplemented with 10% fetal bovine serum and 1% glutamine. For induction, cells were grown in presence of 4-hydroxytamoxifen (600 nM) for 48 hours. For BrdU incorporation, cells were labeled with 10 μg/ml bromodeoxyuridine (BrdU, Sigma) for 16 hours and incorporation was evaluated by immunofluorescence after DNA denaturation.
(§2) (for the experiments in FIG. 36). LNA were first boiled at 90° C. for 5 minutes, chilled at 4° C. for 5 minutes and transfected with Lipofectamine RNAiMAX (Invitrogen) at the final concentration of 200 nM.

[2] = system: DDRNAs with telomeric sequence; test: LNA transfection, 53BP1 foci after telomere uncapping in T19 fibrosarcoma cells; type: cell-based, human
Method: as §1
(§3) (for the experiments in FIGS. 35-36). Cells were fixed with 1:1 methanol/acetone solution for 2 minutes at room temperature, or 4% paraformaldehyde for 10 minutes at room temperature. After blocking, cells were stained with primary antibodies for 1 h at room temperature, washed and incubated with conjugated secondary antibodies for 40 minutes at RT. Nuclei were stained with DAPI (1 μg/ml).
as §2

[3] = system: HEK293 cells; test: G2/M checkpoint assay in HEK293 cells after shRNA knockdown; type: cell-based, human; conditions: HEK293, 12, 24 and 36 hours post irradiation (5Gy)
Method: HEK 293 calcium phosphate transfected cells were irradiated with 5Gy and allowed to respond to IR-induced DNA damage in a cell culture incubator for 12, 24 or 36 hours. Then, at these three time points post irradiation, together with not irradiated cells, 1×10^6 cells were collected for Fluorescence Activated Cell Sorting (FACS) analysis, fixed in 75% ethanol in PBS, 30 minutes on ice. Afterwards, cells were treated 12 hours with 40 μg/ml of RNase A and incubated at least 1 h with propidium iodide (PI). FACS profiles were obtained by the analysis of at least 5×10^5 cells. In the complementation experiments HEK 293 were transfected using Lipofectamine RNAi Max (Invitrogen) and 48 hours later irradiated with 5Gy. Cells were then treated as explained above.

[4] = system: HeLa cells; test: DDR foci formation in the RNase A in vitro cell system with translation inhibitor; type: cell-based, human; conditions: data not shown
Method: (§4) Cells were plated on poly-D-lysinated coverslips and irradiated with 2Gy of IR. 1 h after HeLa cells were permeabilized with 2% Tween 20 in PBS for 10 minutes at RT while I-Sce I-transfected NIH2/4 cells were permeabilized in 0.5% Tween 20 in PBS for 10 minutes at RT. RNase A treatment was carried out in 1 ml of 1 mg/ml Ribonuclease A from bovine pancreas (Sigma-Aldrich cat n: R5503) in PBS for 25 minutes at room temperature. After RNase A digestion, the samples were washed with PBS, treated with 80 units of RNase inhibitor (RNaseOUT Invitrogen 40 units/μl) and 2 μg/ml of α-amanitin (SIGMA) for 15 minutes in a total volume of 70 μl. […] Then, RNase A-treated cells were incubated with total, small or gel extracted RNA, or the same amount of tRNA, for additional 15 minutes at room temperature. […] Cell were then fixed with 4% paraformaldehyde or methanol:acetone 1:1.

[5] = system: NIH2/4 cells; test: Short RNA sequencing of NIH2/4 cells after Dicer or Drosha knockdown by shRNA; type: cell-based, mouse; conditions: for miRNA expression (spike-normalized reads mapping to miRBase): NIH2/4, cut and uncut, compared to wildtype; for fraction of 22-23 nt vs total short RNAs at the locus: NIH2/4, uncut and cut conditions
Method: Nuclei were isolated the day after the adenoviral infection.
Nuclear RNA shorter than 200 nt was purified using mirVana™ microRNA Isolation Kit. RNA quality was checked on a small RNA chip (Agilent) before library preparation (Supplementary FIG. 23a). For Illumina hi Seq Version3 sequencing, spike RNA was added to each RNA sample in the RNA:spike ratio of 10,000:1 before library preparation and libraries for Illumina GA IIX were prepared without spike. An improved short RNA library preparation protocol was used to prepare libraries^68. In brief, adenylated 3′ adapters were ligated to 3′ ends of 3′-OH short RNAs using a truncated RNA ligase enzyme followed by 5′ adapter ligation to 5′-monophosphate ends using RNA ligase enzyme, ensuring specific ligation of undegraded short RNAs. cDNA was prepared using a primer specific to the 3′ adapter in the presence of Dimer eliminator and amplified for 12-15 PCR cycles using a special forward primer targeting the 5′ adapter containing additional sequence for sequencing and a reverse primer targeting the 3′ adapter. The amplified cDNA library was run on a 6% polyacrylamide gel and the 100 bp band containing cDNAs up to 33 nt was extracted using standard extraction protocols. Libraries were sequenced after quality check on a DNA high sensitivity chip (Agilent). Multiplexed barcode sequencing was performed on Illumina GA-IIX (35 bp Single end reads) and Illumina Hi seq version3 (51 bp single end reads). Sequences of all the DDRNAs identified in this study will be available for free downloading by the time of publication at short read archive.
Statistical significance of downregulation of normalized miRNAs in Dicer and Drosha knockdown samples were calculated using the Wilcoxon signed-rank test.
The differences in the fraction of 22-23 nt vs total short RNAs at the locus between the wildtype, Dicer knockdown, and Drosha knockdown before and after cut was calculated by fitting a negative binomial model to the sRNA count data and performing a likelihood ratio test, keeping the fraction of 22-23 nt vs total short RNAs at the locus fixed across conditions under the null hypothesis and allowing it to vary between conditions under the alternative hypothesis.

[6] = system: Dicer; conditions: RNA with aptamer-binding site for paromomycin; according to the amount of ligand; cited from earlier work
[7] = target: T1, RNA polymerase II (Homo sapiens, UniProt P24928); test: Spontaneous 53BP1 foci reformation after RNase A treatment in irradiated HeLa cells; type: cell-based; conditions: irradiated (2Gy) HeLa, RNase A then RNaseOUT, with α-amanitin for 10 or 45 minutes
T1 construct: endogenous in cells; host or cells: HeLa
Method: as §4, with “After RNase A digestion, the samples were washed with PBS, treated with 80 units of RNase inhibitor (RNaseOUT Invitrogen 40 units/μl) and 2 μg/ml of α-amanitin (SIGMA) for 15 minutes in a total volume of 70 μl.” left out

[8] = target: T2, RNA polymerase II (Mus musculus, UniProt P08775); test: 53BP1 focus reformation at the I-Sce I-induced DSB in RNase A-treated NIH2/4 cells; type: cell-based; conditions: data not shown
T2 construct: endogenous in cells; host or cells: NIH2/4 mouse cells
Method: as §4

[9] = system: TRF2^flox/flox MEFs; test: RNase A treatment of TRF2 knockout MEFs with uncapped telomeres; type: cell-based, mouse; conditions: RNase A vs BSA
Method: as §1, §3
(for the experiments in FIG. 35). CRE-ER TRF2^flox/flox MEFs (Lazzerini Denchi and de Lange, Nature 2007) were induced to generate TRF2 knockout and telomere uncapping. 48 hours later cells were permeabilized with 0.6% Tween 20 in PBS for 15 min at room temperature.

[10] = system: HeLa cells; test: RNase A treatment of irradiated permeabilized HeLa cells, DDR foci; type: cell-based, human; conditions: irradiated HeLa cells (2Gy), RNase A 1 mg/ml
Method: as §4

[11] = system: NIH2/4 cells; test: RNase A treatment of I-Sce I cut NIH2/4 cells, foci colocalizing with Cherry-Lac; type: cell-based, mouse
Method: as §4

[12] = Flag+ T19 cells, BrdU 16 hours, compared to Cntrl LNA
[13] = induced (Flag+) T19 cells, LNA 200 nM transfected at day 13 from induction, compared to control LNA
[14] = uninduced (Flag−) T19 cells, LNA 200 nM

LNA 6: LNA, SEQ ID NO: 62, GGGTTAGGGTTAGGGTTAGGG; sense telomeric sequence (LNA)
percentage of BrdU-positive cells [1, 12]: significant increase
percentage of BrdU-positive cells ([1]; Flag− T19 cells): no difference is observed
53BP1 foci-positive cells [2, 13]: decrease in DDR-positive cells
53BP1 foci-positive cells [2, 14]: no difference was observed

LNA 5: LNA, SEQ ID NO: 61, CCCTAACCCTAACCCTAACCC; antisense telomeric sequence; control in FIG. 34
percentage of BrdU-positive cells [1, 12]: significant increase
percentage of BrdU-positive cells ([1]; Flag− T19 cells): no difference is observed
53BP1 foci-positive cells [2, 13]: decrease in DDR-positive cells
53BP1 foci-positive cells [2, 14]: no difference was observed

shRNA against p53: pRETROSUPER shp53, short hairpin SEQ ID NO:2 (guide AGTAGATTACCACTGGAGTCTT)
G2/M checkpoint (FACS cell-cycle profile) [3]: did not arrest upon DNA damage

C[C@@H]1C[C@@H]([C@H](O)CC2CC(=O)NC(=O)C2)C(=O)[C@@H](C)C1 [cyclohexamide]
DDR foci formation [4]: no impact on DDR foci formation

shDicer: shRNA for mouse Dicer, SEQ ID NO:3, lentiviral pLKO.1 (CCGGGCCTCACTTGACCTGAAGTATCTCGAGATACTTCAGGTCAAGTGAGGCTTTTT)
miRNA expression (spike-normalized reads mapping to miRBase) [5]: significantly lower expressed
fraction of 22-23 nt vs total short RNAs at the locus [5]: decreases

NC[C@@H]1O[C@H](O[C@H]2[C@@H](O)[C@H](O[C@@H]3[C@@H](O)[C@H](N)C[C@H](N)[C@H]3O[C@H]3O[C@H](CO)[C@@H](O)[C@H](O)[C@H]3N)O[C@@H]2CO)[C@H](N)[C@@H](O)[C@@H]1O [paromomycin]
Dicer activity [6]: decrease of Dicer activity

shDrosha: shRNA for mouse Drosha, SEQ ID NO:4, lentiviral pLKO.1 (CCGGCCTGGAATATGTCCACACTTTCTCGAGAAAGTGTGGACATATTCCAGGTTTTTG)
miRNA expression (spike-normalized reads mapping to miRBase) [5]: significantly lower expressed
fraction of 22-23 nt vs total short RNAs at the locus [5]: decreases

LNA 3: LNA, SEQ ID NO: 59, ACTGATAGGGAGTGGTAAACT; unrelated control in FIG. 36 (LNA-modified oligonucleotide, LNA positions not given here)
53BP1 foci-positive cells [2, 13]: no effect

α-amanitin
53BP1-foci reformation [7]: prevents 53BP1-foci reformation
53BP1 focus reformation at the I-Sce I-induced DSB [8]: prevents 53BP1 focus reformation

B1: RNase A: Ribonuclease A from bovine pancreas (Sigma-Aldrich R5503), broad-specificity RNA nuclease (protein, UniProt P61823 27-150, looked up)
Ribonuclease pancreatic: KETAAAKFERQHMDSSTSAASSSNYCNQMMKSRNLTKDRCKPVNTFVHESLADVQAVCSQKNVACKNGQTNCYQSYSTMSITDCRETGSSKYPNCAYKTTQANKHIIVACEGNPYVPVHFDASV
53BP1 foci [9]: disassemble
γH2AX foci [9]: stable
53BP1, pATM, pS/TQ and MDC1 foci [10]: strongly reduced
γH2AX accumulation [10]: only slightly affected
53BP1, pATM and MRE11 foci colocalizing with the Cherry-Lac focus [11]: lost
